Test results as given in patent publication US11291655B2, “RAD51 inhibitors” (Cyteir Therapeutics, Inc., priority 2017, dated 2022).

Tested on: Daudi Cell Culture
Experiment: Compound primary screening in Daudi cell culture
Format: cell-based
Conditions: Homo sapiens, 168 h; Daudi cells, 1250 cells per well, reads on Day 7
Method: Compound Primary Screening
1. Materials and Supplies
Plastic ware and consumables needed for this experiment include: Cell Culture media; Evaporation Buffer media; 100% DMSO; 96 well U-bottom sterile culture plates; 250 mL bottle; 1.5 mL Opaque amber epi tubes; Epi Tube rack; 300 mL reservoirs; 25 mL reservoir; 25 mL serological pipette tips; 5 mL serological pipette tips P1000 Pipette Tips; and P200 Pipette Tips.
Equipment needed for this experiment include: Viaflo 384 liquid handler; Eppendorf serological pipette; Eppendorf P1000 Pipette; and Eppendorf P200 Pipette
Daudi Cell Culture is also needed for this experiment.
Lastly, compounds (e.g., the compounds of this invention) to be tested are needed.
All steps were performed in a sterile environment inside the Biosafety cabinet.
A 96 well u-bottom plate was prepared by writing the experiment number, plate number, date and initials in the top right corner of the plate lid. With a sterile 300 ml reservoir, and 25 ml serological pipette, evaporation buffer media was pipetted into reservoir in 25 ml increments. Using the liquid handler, 150 ul of evaporation buffer media was pipetted from reservoir into rows A and H, and Columns 1 and 12 of the 96 well u-bottom plate. Cell cultures were counted to obtain the density of cells per ml, and the culture viability. The cell density information was used to obtain 1,000,000 cells from culture using a 5 mL serological pipette into an epi tube. The cell density information from the culture was used to calculate the number of cells and volume of media needed for the assay to seed 1250 cells in 130 ul of media per available culture well in the 96 well u-bottom plate. Rows B through F were used for cells (50 wells in total), with row G left for an empty media control. The calculation was overestimated by 10 mL to account for the dead volume in the 300 ml reservoir. Once the media volume was calculated, the appropriate volume of media was pipetted in 25 mL increments into the 250 mL bottle using a 25 mL serological pipette. The 250 ml bottle was capped tightly, and placed into a 37° C. water bath for 2 minutes. While the culture media was warming, 10 mL of fresh media was pipetted from the 500 mL culture media bottle into a sterile 25 mL reservoir. Using the Eppendorf multichannel pipette, 130 ul of media was pipetted from the 25 mL reservoir into row G of the 96 well u-bottom plate. Once the 250 mL bottle of media was warmed, the volume of culture needed was pipetted into the bottle, and mixed gently with a 25 mL serological pipette as to not create bubbles, and then the contents of the bottle were pipetted into a new 300 mL reservoir. Using the liquid handler, 130 ul of culture was pipetted from the 300 mL reservoir into rows B through F of the 96 well u-bottom plate. Once the culture was added, the plate was placed into a 37° C. incubator until the compound master plate was prepared for use.
Two 96 well u-bottom plates were prepared by writing the master plate name in the upper right corner of the plate lid. Labeling one DMSO master and the other Media Master. The compounds of interest were obtained from the laboratory freezer, and placed into a 25 well storage box with a lid, and set the box aside. The compounds were vortexed after thawing but before use. Using an automatic multichannel pipette, 20 ul of 100% DMSO was pipetted into wells B3-B11 through G3-G11 of the DMSO master plate. For each compound on the master plate, 50 ul of the compound were pipetted in the appropriate well of row 2 (reference plate map to determine appropriate well). A serial dilution was prepared beginning by aspirating 20 ul from row 2 and mixing with row 3, repeating until row 11 was reached. Using the liquid handler, 194 ul of Daudi media was dispensed into wells B2-B11 through G2-G11 of the Media master plate. Using the liquid handler, 6 ul from the DMSO master plate was aspirated and dispensed into the media master plate, mixing 100 ul twice. […]

SMILES | EC50
CC(=O)Nc1ccc(-c2cnc(-c3ccc(NC(=S)NC(C)C)cc3)s2)c(S(=O)(=O)N2C3CCC2CC3)c1 [Compound D22] | < 1 µM
COc1cc(-c2ncc(-c3ccc(N4CCCC4=O)cc3S(=O)(=O)NC(C)(C)C)s2)ccc1NC(=O)OC(C)C [Compound J16] | < 10 µM
CC(=O)Nc1ccc(-c2cnc(-c3ccc(NC(=S)NC(C)C)cc3)s2)c(S(=O)(=O)N(C)C)c1 [Compound D10] | < 1 µM
CNS(=O)(=O)c1cc(NC(C)=O)ccc1-c1cnc(-c2ccc(NC(=S)NC(C)C)cc2)s1 [Compound D6] | > 10 µM
COC(=O)CNS(=O)(=O)c1cc(NC(C)=O)ccc1-c1cnc(-c2ccc(NC(=S)NC(C)C)cc2)s1 [Compound D20] | > 10 µM
CC(=O)Nc1ccc(-c2cnc(-c3ccc(NC(=S)NC(C)C)cc3)s2)c(S(=O)(=O)N2CCOCC2)c1 [Compound D8] | > 10 µM
C=C(C)COC(=O)Nc1ccc(-c2cnc(-c3ccc(NC(=O)OC(C)C)cc3)s2)c(S(=O)(=O)NC(C)(C)C)c1 [Compound B5] | < 1 µM
CC(C)OC(=O)Nc1ccc(-c2ncc(-c3ccc(NC(=O)OCCc4ccccc4)cc3S(=O)(=O)NC(C)(C)C)s2)cc1 [Compound B8] | < 1 µM
CC(C)OC(=O)Nc1ccc(-c2ncc(-c3ccc(NC(=O)CCc4ccccc4)cc3S(=O)(=O)NC(C)(C)C)s2)cc1 [Compound B6] | < 1 µM
CC(C)OC(=O)Nc1ccc(-c2ncc(-c3ccc(NC(=O)OCC4CCCCC4)cc3S(=O)(=O)NC(C)(C)C)s2)cc1 [Compound B10] | < 1 µM
COC(=O)[C@@H](NS(=O)(=O)c1cc(NC(C)=O)ccc1-c1cnc(-c2ccc(NC(=S)NC(C)C)cc2)s1)C(C)C [Compound D2] | > 10 µM
CC(C)OC(=O)Nc1ccc(-c2ncc(-c3ccc(NC(=O)OCc4ccccn4)cc3S(=O)(=O)NC(C)(C)C)s2)cc1 [Compound B3] | < 1 µM
COC(=O)[C@H](Cc1ccccc1)NS(=O)(=O)c1cc(NC(C)=O)ccc1-c1cnc(-c2ccc(NC(=S)NC(C)C)cc2)s1 [Compound D1] | > 10 µM
CNCCCNS(=O)(=O)c1cc(NC(C)=O)ccc1-c1cnc(-c2ccc(NC(=S)NC(C)C)cc2)s1 [Compound D23] | > 10 µM
CC(C)OC(=O)Nc1ccc(-c2ncc(-c3ccc(NC(=O)NC(C)c4ccccc4)cc3S(=O)(=O)NC(C)(C)C)s2)cc1 (stereo not shown) [Compound C1] | < 1 µM
CC(C)OC(=O)Nc1ccc(-c2ncc(-c3ccc(NC(=O)OCC4CCCN4)cc3S(=O)(=O)NC(C)(C)C)s2)cc1 (stereo not shown) [Compound B7] | < 5 µM

Second part, the molecule after the results:

EC50 | SMILES
> 10 µM | CC(C)OC(=O)Nc1ccc(-c2ncc(-c3ccc(N4CCC(Cc5ccccc5)C4=O)cc3S(=O)(=O)NC(C)(C)C)s2)cc1 (stereo not shown) [Compound J28, isopropyl (4-(5-(4-(3-benzyl-2-oxopyrrolidin-1-yl)-2-(N-(tert-butyl)sulfamoyl)phenyl)thiazol-2-yl)phenyl)carbamate]
< 10 µM | CC(=O)N(C)c1ccc(-c2cnc(-c3ccc(NC(=O)OC(C)C)cc3)s2)c(S(=O)(=O)NC(C)(C)C)c1 [Compound E20]
> 10 µM | CC(C)NC(=S)Nc1ccc(-c2ncc(-c3ccc(NC(=O)NCc4cn[nH]c4)cc3S(=O)(=O)NC(C)(C)C)s2)cc1 [Compound N4]
> 10 µM | CC(C)NC(=O)Nc1ccc(-c2ncc(-c3ccc(NS(C)(=O)=O)cc3S(=O)(=O)NC(C)(C)C)s2)cc1 [Compound J15]
< 1 µM | CC(C)OC(=O)Nc1ccc(-c2ncc(-c3ccc(NC(=O)C(C)C)cc3S(=O)(=O)NC(C)(C)C)s2)cc1 [Compound H10]
> 10 µM | CC(=O)Nc1ccc(-c2ncc(-c3ccc(N)cc3S(=O)(=O)NC(C)(C)C)s2)cc1 [Compound E4]
> 10 µM | CC(C)OC(=O)Nc1ccc(-c2ncc(-c3ccc(CNC(=O)C(C)(C)C)cc3S(=O)(=O)NC(C)(C)C)s2)cc1 [Compound P3]
> 10 µM | CC(C)NC(=S)Nc1ccc(-c2ncc(-c3ccc(Nc4nccn4C)cc3S(N)(=O)=O)s2)cc1 [Compound E19]
> 10 µM | CNS(=O)(=O)Nc1ccc(-c2ncc(-c3ccc(NC(C)=O)cc3S(=O)(=O)NC(C)(C)C)s2)cc1 [Compound G9]
> 10 µM | CC(C)OC(=O)NCc1ccc(-c2cnc(-c3ccc(NC(=O)OC(C)C)cc3)s2)c(S(=O)(=O)NC(C)(C)C)c1 [Compound P9]
< 5 µM | CC(C)OC(=O)Nc1ccc(-c2ncc(-c3ccc(O)cc3S(=O)(=O)NC(C)(C)C)s2)cc1 [Compound I2, isopropyl N-[4-[5-[2-(tert-butylsulfamoyl)-4-hydroxy-phenyl]thiazol-2-yl]phenyl]carbamate]
< 10 µM | CC(C)OC(=O)Nc1ccc(-c2ncc(-c3ccc(C(F)(F)F)cc3S(=O)(=O)NC(C)(C)C)s2)cc1 [Compound J6]
< 5 µM | CC(C)OC(=O)Nc1ccc(-c2ncc(-c3ccc(CNC(=O)C(C)C)cc3S(=O)(=O)NC(C)(C)C)s2)cc1 [Compound P2]
< 5 µM | CC(C)OC(=O)Nc1ccc(-c2ncc(-c3ccc(NC(=O)C4CC4)cc3S(=O)(=O)NC(C)(C)C)s2)cc1 [Compound H3]
> 10 µM | CC(C)(C)NS(=O)(=O)c1cc(Nc2nccs2)ccc1-c1cnc(-c2ccc(N)cc2)s1 [Compound E12]
> 10 µM | CC(=O)Nc1ccc(-c2cnc(-c3ccc(N)cc3S(=O)(=O)NC(C)(C)C)s2)c(S(=O)(=O)NC(C)(C)C)c1 [Compound E8]
< 5 µM | CC(C)OC(=O)Nc1ccc(-c2ncc(-c3ccc(N4CCOC4=O)cc3S(=O)(=O)NC(C)(C)C)s2)cc1 [Compound J23, isopropyl N-[4-[5-[2-(tert-butylsulfamoyl)-4-(2-oxooxazolidin-3-yl)phenyl]thiazol-2-yl]phenyl]carbamate]
< 1 µM | CCC(=O)Nc1ccc(-c2cnc(-c3ccc(NC(=O)OC(C)C)cc3)s2)c(S(=O)(=O)NC(C)(C)C)c1 [Compound H4]
> 10 µM | COCCS(=O)(=O)Nc1ccc(-c2ncc(-c3ccc(NC(C)=O)cc3S(=O)(=O)NC(C)(C)C)s2)cc1 [Compound G8]
> 10 µM | CC(C)OC(=O)Nc1ccc(-c2ncc(-c3ccc(N4CCN(Cc5ccccc5)C4=O)cc3S(=O)(=O)NC(C)(C)C)s2)cc1 [Compound J21]
< 10 µM | CC(C)NC(=S)Nc1ccc(-c2ncc(-c3ccc(NC(=O)NCc4cccc(O)c4)cc3S(=O)(=O)NC(C)(C)C)s2)cc1 [Compound N2]
< 1 µM | CCOC(=O)Nc1ccc(-c2ncc(-c3ccc(NC(C)=O)cc3S(=O)(=O)NC(C)(C)C)s2)cc1 [Compound G3]
< 5 µM | CC(C)OC(=O)Nc1ccc(-c2ncc(-c3ccc(NC(=O)[C@H]4CCCN4)cc3S(=O)(=O)NC(C)(C)C)s2)cc1 [Compound H2]
< 10 µM | COC(=O)Nc1ccc(-c2ncc(-c3ccc(NC(C)=O)cc3S(=O)(=O)NC(C)(C)C)s2)cc1 [Compound G2]
< 10 µM | CC(C)NC(=S)Nc1ccc(-c2ncc(-c3ccc(NC(=O)NCc4ccccn4)cc3S(=O)(=O)NC(C)(C)C)s2)cc1 [Compound M4]
< 10 µM | CC(=O)Nc1ccc(-c2cnc(-c3ccc(NC(C)=O)cc3S(=O)(=O)NC(C)(C)C)s2)c(S(=O)(=O)NC(C)(C)C)c1 [Compound E3]
> 10 µM | CC(C)OC(=O)Nc1ccc(-c2ncc(-c3ccc(CNC(=O)OCc4ccccc4)cc3S(=O)(=O)NC(C)(C)C)s2)cc1 [Compound Q2, isopropyl N-[4-[5-[4-(benzyloxycarbonylaminomethyl)-2-(tert-butylsulfamoyl)phenyl]thiazol-2-yl]phenyl]carbamate]
